Measured values from patent publication US20240368159A1, “HPK1 DEGRADERS, COMPOSITIONS COMPRISING THE HPK1 DEGRADER, AND METHODS OF USING THE SAME” (BIOFRONT LTD, priority 2021, published 2024).

Experiments:
HPK1 p-SLP-76 = HPK1 p-SLP-76 inhibition assay in human PBMC (HTRF); assay type: cell-based; conditions: 6 h compound, anti-CD3 stimulation 20 min
Procedure, shortened: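 Human PBMC starved overnight in 0.5% FBS, treated with compound 6 h at 37° C, then stimulated with anti-CD3 (10 ug/mL final) for 20 min. Lysates analysed for phospho-SLP76 by HTRF after overnight detection-antibody incubation at 25° C.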

HPK1 protein [1] = target: T1, HPK1 protein (Homo sapiens, UniProt Q92918); experiment: HPK1 enzyme inhibition assay (ADP-Glo); assay type: biochemical; conditions: MBP substrate, ATP, ADP-Glo readout
T1 construct: purchased Signal Chem M23-11G-10
T1 sequence (Q92918 1-346 limits assumed): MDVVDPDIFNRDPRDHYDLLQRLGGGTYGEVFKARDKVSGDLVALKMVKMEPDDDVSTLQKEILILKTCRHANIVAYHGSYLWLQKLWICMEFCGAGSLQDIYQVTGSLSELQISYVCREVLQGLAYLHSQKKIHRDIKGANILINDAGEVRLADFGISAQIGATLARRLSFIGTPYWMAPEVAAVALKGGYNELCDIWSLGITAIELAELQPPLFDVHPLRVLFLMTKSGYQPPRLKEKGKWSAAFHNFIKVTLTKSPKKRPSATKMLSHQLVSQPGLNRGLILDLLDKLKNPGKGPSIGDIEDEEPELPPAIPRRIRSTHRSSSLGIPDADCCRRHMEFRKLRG
Procedure, shortened: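 Recombinant human HPK1 preincubated with compound 60 min at 25 °C, then reaction with MBP (0.2 ug/ul, 2× stock) and ATP (20 μM, 2× stock) 60 min at 25 °C. ADP formed detected by ADP-Glo after ATP depletion and conversion to ATP; IC50 calculated from signal.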

HPK1 protein [2] = target: T2, HPK1 protein (Homo sapiens, UniProt Q92918); experiment: HPK1 protein degradation in human PBMC (western blot); assay type: cell-based; conditions: 18 h incubation
T2 construct: Frozen human PBMC were purchased from Shanghai OribioTech; host or cells: human PBMC
Procedure, shortened: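 Recovered frozen human PBMC in RPMI1640 exposed to a range of compound concentrations for 18 h. Lysates normalized by BCA and HPK1 level read by western blot with anti-HPK1 polyclonal antibody, β-actin as loading control.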
T2 sequence (Q92918 whole entry): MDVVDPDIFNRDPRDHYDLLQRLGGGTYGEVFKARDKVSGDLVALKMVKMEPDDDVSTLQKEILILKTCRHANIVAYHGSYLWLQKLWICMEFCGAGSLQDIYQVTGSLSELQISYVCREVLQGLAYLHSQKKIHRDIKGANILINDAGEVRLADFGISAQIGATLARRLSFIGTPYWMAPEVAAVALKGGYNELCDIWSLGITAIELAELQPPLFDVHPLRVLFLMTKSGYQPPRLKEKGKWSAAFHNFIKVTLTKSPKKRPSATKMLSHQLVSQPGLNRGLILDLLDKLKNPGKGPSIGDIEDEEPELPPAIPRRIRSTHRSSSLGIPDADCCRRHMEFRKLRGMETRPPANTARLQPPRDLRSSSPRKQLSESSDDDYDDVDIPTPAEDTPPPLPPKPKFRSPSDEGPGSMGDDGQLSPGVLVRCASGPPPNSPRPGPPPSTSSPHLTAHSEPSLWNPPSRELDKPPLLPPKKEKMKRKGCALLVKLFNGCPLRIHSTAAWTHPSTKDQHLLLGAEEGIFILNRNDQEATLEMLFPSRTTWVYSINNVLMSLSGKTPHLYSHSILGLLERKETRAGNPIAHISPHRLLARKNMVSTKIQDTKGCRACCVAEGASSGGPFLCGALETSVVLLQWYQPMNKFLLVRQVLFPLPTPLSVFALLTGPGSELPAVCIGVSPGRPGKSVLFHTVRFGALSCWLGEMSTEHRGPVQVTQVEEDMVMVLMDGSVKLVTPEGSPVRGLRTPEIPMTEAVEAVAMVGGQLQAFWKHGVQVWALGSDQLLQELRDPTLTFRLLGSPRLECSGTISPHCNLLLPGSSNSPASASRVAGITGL

HPK1 protein [3] = target: T3, HPK1 protein (Mus musculus, UniProt P70218); experiment: HPK1 protein degradation in mouse pan T cell (western blot); assay type: cell-based; conditions: 18 h incubation
T3 construct: the CD3+ T cell population was isolated from spleenocytes of mice; endogenous in cells; host or cells: primary mouse splenic CD3+ (pan) T cells
T3 sequence (P70218 1-827): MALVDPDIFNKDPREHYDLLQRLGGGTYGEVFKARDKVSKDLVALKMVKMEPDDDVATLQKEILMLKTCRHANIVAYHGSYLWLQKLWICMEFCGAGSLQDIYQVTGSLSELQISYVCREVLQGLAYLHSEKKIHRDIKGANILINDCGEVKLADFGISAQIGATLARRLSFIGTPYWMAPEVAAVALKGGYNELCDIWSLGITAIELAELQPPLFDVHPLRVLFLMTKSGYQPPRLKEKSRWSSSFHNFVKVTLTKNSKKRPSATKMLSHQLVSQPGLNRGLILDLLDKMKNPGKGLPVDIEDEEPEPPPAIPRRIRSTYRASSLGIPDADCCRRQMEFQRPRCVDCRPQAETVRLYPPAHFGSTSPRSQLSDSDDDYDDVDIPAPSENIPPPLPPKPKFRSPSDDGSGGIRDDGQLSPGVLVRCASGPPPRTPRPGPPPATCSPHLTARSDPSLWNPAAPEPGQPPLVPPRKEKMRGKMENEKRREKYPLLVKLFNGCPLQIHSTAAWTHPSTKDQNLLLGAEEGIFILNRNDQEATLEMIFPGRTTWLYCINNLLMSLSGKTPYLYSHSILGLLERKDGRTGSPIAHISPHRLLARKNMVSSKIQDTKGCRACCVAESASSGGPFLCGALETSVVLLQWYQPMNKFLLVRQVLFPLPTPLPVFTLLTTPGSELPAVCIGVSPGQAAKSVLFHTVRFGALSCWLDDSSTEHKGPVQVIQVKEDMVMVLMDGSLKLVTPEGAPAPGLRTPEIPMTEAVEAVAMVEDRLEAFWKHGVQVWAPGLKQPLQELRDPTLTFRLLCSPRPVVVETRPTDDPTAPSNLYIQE
Procedure, shortened: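 CD3+ pan T cells were isolated from mouse splenocytes and incubated 18 h with a range of compound concentrations. Lysates were normalised by BCA and run on SDS-PAGE. HPK1 was detected by western blot with an anti-human HPK1 polyclonal antibody, with β-actin as loading control.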

[4] = tested on: IL-2 production in primary mouse CD3+ T cells; experiment: Cytokine measurement: IL-2 production in mouse CD3+ T cells (ELISA); assay type: cell-based; conditions: T-cell, plate bound anti-CD3, 40 hrs; for fold induction at 1 µM: 1 uM compound, read-out: IL-2 production Fold change (1 uM); for fold induction at 3 µM: 3 uM compound, read-out: IL-2 production Fold change (3 uM)
Procedure: Anti-CD3 Ab was used to provide signal 1 to stimulate mouse CD3+ T cells. Effect of compound stimulation on T cells was measure by IL2 ELISA. Briefly, anti-CD3 Ab was coated onto plates overnight. Isolated T cells from mouse splenocytes were incubated with plate bound CD3 in the presence and absence of compound for 40 hrs. After incubation, the supernatant was collected and IL2 level in the supernatant was determined by mouse IL2 ELISA kit.

SMILES: O=C1CCC(c2ccc(C3CCN(CCCN4CCN(c5cccc(-c6cnc7[nH]cc(C8CC8)c7c6Cl)c5)C(=O)C4)CC3)cc2)C(=O)N1 (stereo not drawn) [Example 73, 3-(4-(1-(3-(4-(3-(4-chloro-3-cyclopropyl-1H-pyrrolo[2,3-b]pyridin-5-yl)phenyl)-3-oxopiperazin-1-yl)propyl)piperidin-4-yl)phenyl)piperidine-2,6-dione]
- IC50 (HPK1 p-SLP-76): ≤ 300 nM
- IC50 (HPK1 protein [1]): ≤ 10 nM
- Dmax (HPK1 protein [2]): 87%
- Dmax (HPK1 protein [3]): 95%
- fold induction at 1 µM [4]: 2
- fold induction at 3 µM [4]: < 0.5

SMILES: O=C1CCC(N2C(=O)c3ccc(N4CCC(OCC(=O)N5CCN(c6cccc(-c7cnc8[nH]cc(CC(F)F)c8c7Cl)c6)C(=O)C5)CC4)cc3C2=O)C(=O)N1 (stereo not drawn) [Example 36]
- IC50 (HPK1 p-SLP-76): ≤ 300 nM
- IC50 (HPK1 protein [1]): 10 to 100 nM
- Dmax (HPK1 protein [2]): 94%
- Dmax (HPK1 protein [3]): 95%
- fold induction at 1 µM [4]: 1.8
- fold induction at 3 µM [4]: 3.8

SMILES: O=C1CCC(N2C(=O)c3cc(F)c(N4CCN(CCCS(=O)(=O)N5CCN(c6cccc(-c7cnc8[nH]cc(C9CC9)c8c7Cl)c6)C(=O)C5)CC4)cc3C2=O)C(=O)N1 (stereo not drawn) [Example 101, 5-(4-(3-((4-(3-(4-chloro-3-cyclopropyl-1H-pyrrolo[2,3-b]pyridin-5-yl)phenyl)-3-oxopiperazin-1-yl)sulfonyl)propyl)piperazin-1-yl)-2-(2,6-dioxopiperidin-3-yl)-6-fluoroisoindoline-1,3-dione]
- IC50 (HPK1 p-SLP-76): ≤ 300 nM
- IC50 (HPK1 protein [1]): 10 to 100 nM
- Dmax (HPK1 protein [2]): 95%
- Dmax (HPK1 protein [3]): 95%
- fold induction at 1 µM [4]: 1.7
- fold induction at 3 µM [4]: 3.7

SMILES: CCc1c[nH]c2ncc(-c3cccc(N4CCN(CCCN5CCC(c6ccc7c(N8CCC(=O)NC8=O)cccc7c6)CC5)CC4=O)c3)c(Cl)c12 [Example 58, 1-(6-(1-(3-(4-(3-(4-chloro-3-ethyl-1H-pyrrolo[2,3-b]pyridin-5-yl)phenyl)-3-oxopiperazin-1-yl)propyl)piperidin-4-yl)naphthalen-1-yl)dihydropyrimidine-2,4 (1H,3H)-dione]
- IC50 (HPK1 p-SLP-76): 300 to 3000 nM
- IC50 (HPK1 protein [1]): 10 to 100 nM
- Dmax (HPK1 protein [2]): 98%
- Dmax (HPK1 protein [3]): 90%
- fold induction at 1 µM [4]: 2.5
- fold induction at 3 µM [4]: 2
